From patent US5348962A, “Hydroxyquinolone derivatives compounds which have pharmaceutical utility” (Merck Sharpe & Dohme Ltd., priority 1990, dated 1994)

System: AMPA receptor
Assay: Cortical slice studies: responses to AMPA in rat cortical slice
Assay type: cell-based
Conditions: from righthand shift in AMPA concentration-response curves, read-out: apparent equilibrium constant (Kb) in response to AMPA
Experimental: The compounds useful in this invention potently and selectively block responses to NMDA and/or AMPA in a brain slice from rat cortex, and inhibit the binding of agonists and antagonists to the strychnine-insensitive site present on the NMDA receptor and/or AMPA binding to rat forebrain membranes.
The effects of compounds of the invention on responses to NMDA and AMPA were assessed using the rat cortical slice as described by Wong et al., Proc. Natl. Acad. Sci. USA, 1986, 83, 7104. The apparent equilibrium constant (Kb) was calculated from the righthand shift in the NMDA or AMPA concentration-response curves produced by the compound under test.

For `O=c1[nH]c2cc([N+](=O)[O-])ccc2c(O)c1-c1ccccc1` [Example 12, 4-Hydroxy-7-nitro-3-phenyl-2(1H)-quinolone], the Kb was under 150 µM.
